From US20100240656A1, “COMPOUNDS AS HSP90 INHIBITORS” (ORYZON GENOMICS, S.A., priority 2007, published 2010)
Like-named read-outs stand apart in the source and are kept apart here.

Key:
[1] = system: Hsp90 client proteins (c-Raf-1, Cdk4, Her2) and co-chaperone Hsp70; details: literature (Banerji U. et al.); cited from earlier work
[2] = molecular target: T1, Hsp90α (Homo sapiens, UniProt P07900); experiment: Human Hsp90α fluorescence polarization competition assay with Example 37 tracer; details: displacement of 50 nM example 37 tracer, 125 nM Hsp90α, 1 h 30 min, 20° C.; read-out: Relative binding affinity values (IC50) obtained from FP measurements
T1 construct: purchased Stressgen Bioreagents SPP-776
From the text: The aim of this study was to determine the binding ability of compounds of the invention to the N-terminal ATP binding site of Hsp90. For that purpose competition assays with fluorescently labeled Hsp90 binders were used (compounds of examples 37 and 41).
Compounds of examples 37 and 41 are structurally based on 8-(6-Iodo-benzo[1,3]dioxol-5-ylsulfanyl)-9-(3-isopropylamino-propyl)-9H-purin-6-ylamine, a known binder of the N-terminal ATP binding site of Hsp90 which has the ability of inhibiting the Hsp90 function (cf. Chiosis G. et al. “Identification of Potent Water Soluble Purine-Scaffold Inhibitors of the Heat Shock Protein 90”, J. Med. Chem., 2006, vol. 49, no. 1, p. 381). Compounds 37 and 41 keep the essential structural features of the known binder (which means that said compounds are able to bind to the ATP binding site) and incorporate a fluorescent probe which allows the detection of the binding by fluorescence polarization.
When the binders of examples 37 and 41 are used in the competition assay, in a first step said binders are allowed to interact with the N-terminal ATP binding site of Hsp90. Then the compounds of the invention are added and it is determined if they are able to bind to the N-terminal ATP binding site (which will imply that the binders of examples 37 and 41 have been replaced from the N-terminal ATP binding site). If after performing the assay, the binding between the tested compound of the invention and the Hsp90 is observed, this will be indicative that the compound of the invention has been bound to the ATP binding site of Hsp90 and, therefore, can inhibit the Hsp90.
(§1) Once compounds of examples 37 and 41 were synthesized as reported above, they were dissolved at 238 μM and 1 mM in DMSO respectively (Sigma-Aldrich, cat. No. 154938). Hsp90α was purchased from Stressgen Bioreagents (cat. No. SPP-776; Victoria, Canada). The assay buffer contained 100 mM Tris·HCl, pH 7.4, 20 mM KCl, 6 mM MgCl2. Before each use 5 μg/mL bovine serum albumin (BSA, Pierce, Rockford (Ill.), cat No. 23209), 0.25 mM TCEP (Sigma, cat No. 64706) and 0.01% NP40 (Nonidet P40 Substitute, Fluka, cat No. 74385) were freshly added (cf. Howes et al., “A fluorescence polarization assay for inhibitors of Hsp90”, Analytical Biochemistry, 2006, vol. 350, p. 202-213; Kim et al., “Development of a fluorescence polarization assay for the molecular chaperone Hsp90”, J. Biomol. Screen., 2004, vol. 9 (5)).
Fluorescence polarization measurements were performed on an Infinite F200 (Tecan, Austria). Measurements were taken in black 96-well microplates (Corning Costar No. 3650) in which both the excitation and the emission occurred from the top of the wells. In the Infinite F200, a xenon arc lamp provides excitation light that passes through a 485 nm (20-nm bandwidth) excitation filter and then a polarizer filter. A beam splitter filter directs the polarized excitation light into the well, and emitted fluorescence transmits back through the same beam-splitter filter, through a polarizer filter, and then through a 535 nm (25-nm bandwidth) emission filter for detection (Kim et al., supra). The read time per well was 20 μs, and the number of reads per well was 25.
Compounds were assayed over a three-fold dilution series in a 96-well plate format to determine IC50 values. The serial dilution was performed in a separate 96-well plate (Thermowell 96 well PCR plate, Non-Treated Polypropylene, Corning Costar No. 6551) at 50 times final assay concentration in DMSO. (Howes et al, supra). 2 μl of compound was transferred to a black 96-well plate (Corning Costar No. 3650) and 98 μL of reaction solution (100 mM Tris·HCl, pH 7.4, 20 mM KCl, 6 mM MgCl2, 5 μg/mL bovine serum albumin (BSA), 0.25 mM TCEP, 0.01% NP40, 50 nM the compound of example 37, 125 nM Hsp90α) was added per well. The plate was allowed to equilibrate for 1 h 30 min on a slow moving shaker at 20° C. in the dark. […]

[3] = system: HCT-116; experiment: Cell growth inhibition by AlamarBlue method, HCT-116; format: cell-based; details: Homo sapiens; HCT-116, 72 hours; read-out: Cell growth inhibition values (EC50) obtained with AlamarBlue method
Experimental: (§2) The human colon cancer cell line HCT-116 and the human breast cell lines MCF-7 and SKBr3 were from the American Type Culture Collection (ATCC; CCL-247, HTB-22 and HTB-30, respectively).
(§3) The HCT-116 and SKBr3 cell lines were maintained in DMEM GlutaMAX (Invitrogen) supplemented with 10% fetal calf serum and the MCF-7 cell line was maintained in RPMI1640 GlutaMAX (Invitrogen) containing 1 mM sodium pyruvate and 10% fetal calf serum. Cells were grown in a humidified incubator at 37° C. in 5% CO2
(§4) Cells were plated in 96-well plates (Costar, 3596) at a density of 6000 cells/well in 50 μL medium 24 h before addition of the compounds. Compounds were then added in 8 concentrations, each in triplicate (dilution series of 1 to 3). To do so, a compound-dilution plate at 200× the screening concentrations was prepared in DMSO 100% (Sigma, 154938). Then, 1.7 μL of the 200× diluted compounds were transferred to a new plate and 170 μL of media were added and mixed with the pipette (plate at 2×). Columns 11 and 12 of this plate (controls) were filled with 1% DMSO in cell media (i.e. 1.7 μL DMSO and 170 μL cell media). Finally, 50 μL of this intermediate plate at 2× were transferred to the plate containing the seeded cells and slowly shaken manually. Cells were grown as described above. AlamarBlue viability assay (Biosource, Invitrogen, DAL1100) was performed 72 hours later following manufacturer's protocol. In brief, AlamarBlue diluted in media was added to cells to have a 5% solution (a 2× solution was prepared in media and 100 μL of this solution were transferred to each well, i.e. final volume of 200 μL). Cells were incubated at 37° C., 3 hours and at room temperature for an additional 30 min. Cells with no compound and, cells with no compound and lysed with triton X-100 (30 μL/well added 10 min before treatment with AlamarBlue) were used as controls (6 replicates of each). Fluorescence was monitored at 530 nm excitation and 590 nm emission wavelengths. Results were quantified using ELx800 Universal Microplate Reader (Bio-Tek Instruments, Inc.). EC50 were calculated as the dose of compound required to inhibit cell growth by 50%.

[4] = system: MCF-7; experiment: Cell growth inhibition by AlamarBlue method, MCF-7; format: cell-based, human; details: MCF-7, 72 hours, read-out: Cell growth inhibition values (EC50) obtained with AlamarBlue method
Experimental: as §2, §3, §4

[5] = molecular target: T1, Hsp90α; experiment: Fluorescence polarization binding isotherms of tracers with Hsp90α; details: fitted to a 1:1 binding model; read-out: dissociation constant (KD) tracer / Hsp90α
Experimental: as §1
Fluorescence polarization measurements were performed on an Infinite F200 (Tecan, Austria). […] A beam splitter filter directs the polarized excitation light into the well, and emitted fluorescence transmits back through the same beam-splitter filter, through a polarizer filter, and then through a 535 nm (25-nm bandwidth) emission filter for detection (Kim et al., supra). The read time per well was 20 μs, and the number of reads per well was 25. […]

[6] = system: SKBr3; experiment: Cell growth inhibition by AlamarBlue method, SKBr3; format: cell-based; details: Homo sapiens, SK-BR-3; SKBr3, 72 hours; read-out: Cell growth inhibition values (EC50) obtained with AlamarBlue method
Experimental: as §2, §3, §4

Structure (SMILES) | IC50 [2] | EC50 [3] | further results
C=CCNC1=C2C[C@@H](C)C[C@H](OC)[C@H](O)[C@@H](C)/C=C(\C)[C@H](OC(N)=O)[C@@H](OC)/C=C\C=C(/C)C(=O)NC(=CC1=O)C2=O [Example 17AAG, 17-Allylamino, 17-Demethoxygeldanamycin] | – | – | effect of Hsp90 inhibitor on client proteins and Hsp70 as described in the literature [1]: promotes degradation of its client proteins and overexpression of the co-chaperone Hsp70
Cc1cc(C)n2c1C=C1C=CC(CCC(=O)NCCNC(=O)CCCCCn3c(Sc4cc5c(cc4I)OCO5)nc4c(N)ncnc43)=[N+]1[B-]2(F)F [Example 37, 6-[6-amino-8-(6-iodo-benzol[1,3]dioxol-5-ylsulfanyl)-purin-9-yl]-hexanoic acid 4,4-difluoro-5,7-dimethyl-4-bora-3a,4a-diaza-s-indacene-3-propionylethylenediamide] | – | – | Kd [5]: 0.06 µM
Nc1ncnc2c1nc(Sc1cc3c(cc1I)OCO3)n2CCCCNC(=O)CCCCCNc1ccc([N+](=O)[O-])c2nonc12 [Example 41, 6-(7-nitro-benzo[1,2,5]oxadiazol-4-ylamino)-hexanoic acid {-4-[6-amino-8-(6-iodo-benzol[1,3]dioxol-5-ylsulfanyl)-purin-9-yl]-butyl}-amide] | – | – | Kd [5]: 0.021 µM
CC(C)N(CCCn1c(Cc2cc3c(cc2I)OCO3)nc(C(N)=O)c1N)C(=O)OC(C)(C)C [Example 44, {3-[5-amino-4-carbamoyl-2-(6-iodo-benzol[1,3]dioxol-5-ylmethyl)-imidazol-1-yl]-propyl}-isopropyl-carbamic acid tert-butyl ester] | 3.2 µM | – | EC50 [4]: 18.8 µM

Continued, in another order:

IC50 [2] | EC50 [3] | Structure (SMILES) | further results
0.5 µM | 3 µM | CC(C)NCCCn1c(Sc2cc3c(cc2I)OCO3)nc(C(N)=O)c1N [Example 33, 5-amino-2-(6-iodo-benzo[1,3]dioxol-5-ylsulfanyl)-1-(3-isopropylamino-propyl)-1H-imidazole-4-carboxamide] | EC50 ([4]; Homo sapiens, MCF7): 3 µM
2.76 µM | 33 µM | CCCCn1c(Sc2nc3cccc(Cl)c3s2)nc(C(N)=O)c1N [Example 48, 5-amino-1-butyl-2-(7-chloro-benzothiazol-2-ylsulfanyl)-1H-imidazole-4-carboxamide] | EC50 ([4]; Homo sapiens, MCF7): 43 µM
13 µM | 85 µM | CSc1cc2c(cc1Sc1nc(C(N)=O)c(N)n1C)CCO2 [Example 99, 5-amino-2-{[6-(methylthio)-2,3-dihydro-1-benzofuran-5-yl]thio}-methyl-1H-imidazole-4-carboxamide] | EC50 [6]: 55 µM
